Measurements from patent publication US10179914B2, “CDC25A inhibitor for the treatment of drug resistant cancer or for the prevention of tumor relapse” (INSERM (INSTITUT NATIONAL DE LA SANTÉ ET DE LA RECHERCHE …, priority 2014, dated 2019).

Tests used:
[1] = test system: primary AML cells expressing wild-type FLT3; test: Clonogenic assay, FLT3 wild-type primary AML cells; assay type: cell-based, human; details: 100 and 200 nM, day 7
Description: (c) Primary cells from patients were cultured in semi-solid medium to estimate their clonogenic potential as described in the Methods section, in the presence or the absence of IRC-083864 (100 and 200 nM). 6 FLT3-ITD positive (upper panel) and 4 FLT3-wild type (lower panel) AML primary samples were used for these experiments. Leukemic colonies were scored under an inverted microscope at day 7.
Patient samples. Patient AML samples were obtained after informed consent in accordance with the Declaration of Helsinki and stored at the HIMIP collection. According to the French law, HIMIP collection has been declared to the Ministry of Higher Education and Research (DC 2008-307 collection 1) and obtained a transfer agreement (AC 2008-129) after approbation by ethical committees (Comité de Protection des Personnes Sud-Ouest et Outremer II and APHP ethical committee). Clinical and biological annotations of the samples have been declared to the CNIL (Comité National Informatique et Libertés i.e. Data processing and Liberties National Committee). Frozen cells were thawed in IMDM medium with 20% FBS and immediately processed for treatment. All patients were diagnosed at the Department of Hematology of Toulouse University Hospital.
Clonogenic assay. […] Leukemic colonies were then scored under an inverted microscope.

[2] = test system: FLT3-ITD primary AML cells from patients; test: Differentiation of FLT3-ITD primary AML samples; assay type: cell-based, human
Description: (a) 4 primary samples from patients carrying the FLT3-ITD mutation (ITD #1-4) were treated for 6 days with IRC-083864 (100 nM), and the expression of CD14 (upper panel) and CD15 (lower panel) was followed by flow cytometry analysis. (b) Quantification (mean±SEM, n=4) of CD14 and CD15 expression in response to IRC-083864. (c) The morphology of primary cells from patients used in (a) was analyzed by microscopy after 6 days and 9 days of treatment with IRC-083864. Original magnification ×100.
Patient samples. Patient AML samples were obtained after informed consent in accordance with the Declaration of Helsinki and stored at the HIMIP collection. According to the French law, HIMIP collection has been declared to the Ministry of Higher Education and Research (DC 2008-307 collection 1) and obtained a transfer agreement (AC 2008-129) after approbation by ethical committees (Comité de Protection des Personnes Sud-Ouest et Outremer II and APHP ethical committee). […]
Flow cytometry. Apoptotic cells were detected with Annexin V-FITC detection kit from BD Pharmingen (San Diego, Calif., USA) according to the manufacturer instructions. […] Data were collected on a LSRII or a LSRFortessa cytometer (BD Biosciences), and analyzed with FlowJo software. […]

Cdc25B = target: T1, Cdc25B (Homo sapiens, UniProt P30305); details: cited from earlier work
T1 sequence (P30305 1-580): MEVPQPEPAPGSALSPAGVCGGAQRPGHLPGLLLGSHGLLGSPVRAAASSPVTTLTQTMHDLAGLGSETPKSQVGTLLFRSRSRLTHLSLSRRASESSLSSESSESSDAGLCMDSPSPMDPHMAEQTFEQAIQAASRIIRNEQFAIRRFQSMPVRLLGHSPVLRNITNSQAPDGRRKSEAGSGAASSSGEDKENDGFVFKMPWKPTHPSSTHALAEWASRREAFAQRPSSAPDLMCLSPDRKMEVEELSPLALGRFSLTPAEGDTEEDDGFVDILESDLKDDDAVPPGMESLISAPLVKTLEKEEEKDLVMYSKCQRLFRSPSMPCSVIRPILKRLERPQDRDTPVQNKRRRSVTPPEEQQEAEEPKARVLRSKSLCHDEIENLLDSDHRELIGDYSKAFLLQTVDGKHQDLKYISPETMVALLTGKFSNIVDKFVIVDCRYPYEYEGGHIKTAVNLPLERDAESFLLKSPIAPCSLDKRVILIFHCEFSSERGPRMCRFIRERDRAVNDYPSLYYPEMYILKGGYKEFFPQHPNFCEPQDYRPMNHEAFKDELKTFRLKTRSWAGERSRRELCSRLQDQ

HCT-116 tumor spheroids = details: by induction of p21 and apoptosis; cited from earlier work

**Q.** For `Cc1nc2c(s1)C(=O)C=C(NCCCN(C)CCCNC1=CC(=O)c3nc(-c4cc(F)ccc4F)oc3C1=O)C2=O` [IRC-083864], which “clonogenic potential of primary cells expressing wild-type FLT3” value [1] is on record?
**A.** not sensitive

**Q.** And the “expression of CD14” value ([2]; 100 nM, 6 days)?
**A.** increased

**Q.** And the “morphology of primary cells” value ([2]; days 6 and 9)?
**A.** monocytic-like morphological nuclear changes

**Q.** And the “IC50 Cdc25 enzyme type B2” value (Cdc25B; B2)?
**A.** nanomolar range

**Q.** What about the “IC50 Cdc25 enzyme type B3” value (Cdc25B; B3) of the same compound?
**A.** nanomolar range

**Q.** And the “growth of HCT-116 tumor spheroids” value (HCT-116 tumor spheroids)?
**A.** inhibits the growth
